# According to a melting point compilation (Tetko et al.; mined from patent text by program, amines drawn as free bases though some values may be those of a salt):
row,Compound,melting point [°C]
1,Cc1ccc(C(=O)O)c(Nc2ccc3cn[nH]c3c2)n1,273 to 274
2,COc1cccc(-c2nn(C(C)c3oc4ccccc4c(=O)c3-c3ccccc3)c3ncnc(N)c23)c1 (stereo unspecified),176 to 178
3,COc1ccc(-c2[nH]nc3c2C(=O)c2c(NC(=O)Cc4ccc5c(c4)OCCO5)cccc2-3)cc1,297
4,COc1cccc(/C(=C\C=C\C(=O)NCCCCc2cccnc2)c2ccccc2)c1,89 to 91
5,O=C(c1nc(NNNc2ccccc2)nc(C(=O)c2ccccc2O)n1)c1ccccc1O,170
6,CNc1cc(C)ccc1C(C)=O,47
7,O=C(N[C@H](Cc1ccccc1C(F)(F)F)[C@@H](O)c1ccc(F)cc1)C1CCCCC1 (racemic),216 to 217
8,COCc1ccc(Cn2cc(-c3ccc(OC)cc3)ccc2=O)cc1,72
9,Cc1cc(Oc2c(Cl)cc(C(F)(F)F)cc2Cl)nn1C(=O)OC(C)(C)C,159 to 161
10,O=C1NC(=O)C(Cc2ccc(OCCc3nc(-c4ccccc4)oc3CO)cc2)S1 (stereo unspecified),98 to 99
11,CC(=O)N1CCC(NC(=O)Nc2ccc(C(F)(F)F)cc2)CC1,240 to 248
12,C=C1c2ccn3c(C)c(C)nc3c2N[C@H](c2ccccc2)[C@H]1O,199 to 202
13,CCc1c(-c2ccc(OCc3ccccc3)cc2)c2c(C(=O)O)c(C(=O)O)c3c(OCc4ccccc4)ccc1n32,151 to 161
14,O=c1c2c(Cl)cc(Cl)cc2n(Cc2ccccc2)c(=O)n1Cc1ccc(F)cc1,148 to 151
15,COc1ccc(OC)c(S(=O)(=O)n2c(CCC(=O)O)cc3nc(Cl)ccc32)c1,204 to 209
16,CCSc1nc(-c2ccccc2)c(-c2ccccc2)s1,73 to 74
17,CCCCC1(CCCC)NC(c2nc(-c3ccncc3)c[nH]2)Cc2c1[nH]c1ccccc21 (stereo unspecified),200 to 205
18,COC(=O)C1Oc2ccccc2Cc2cccc(C)c2O1 (stereo unspecified),104 to 105
19,CC(C)(C)C(=O)Oc1ccc(CCNc2nc(N)n3nc(-c4ccco4)nc3n2)cc1,208 to 210
20,CN(C)C(=O)c1cc2c(OC[C@H](O)CN3CCC(c4ccc5ccccc5c4)CC3)cccc2[nH]1,158 to 160
21,CC(O)=C(C#N)C(=O)Cc1ccc(Cl)cc1,50 to 53
22,OC(c1cccc(-c2nnc(Nc3ccc(Cl)c(Cl)c3)s2)c1)c1cccc(C(F)(F)F)c1 (stereo unspecified),191 to 192
23,O=C(O)C(Cc1ccccc1)C(O)CCCCCOCc1ccccc1 (stereo unspecified),66 to 67
24,COc1ccc(C(=O)c2ccccc2)c(O)c1Cc1cc(C)cc(-n2nc3ccccc3n2)c1O,206 to 209

row,Compound,melting point [°C]
1,CCCCC(=O)Nc1cccc(C(=O)OC)c1,101 to 102
2,CCCc1c(OCCCCCC(=O)c2c(C)c(C)c(OC)c(OC)c2C)ccc(C(=O)O)c1O,108 to 112
3,COc1cc(Nc2nccc(-c3ccc(N4CC(O)C4)nc3)n2)cc(OC)c1OC,186 to 187
4,Cc1c(OCC(F)(F)F)ccnc1CS(=O)c1nc2ccccc2n1S(=O)(=O)c1ccc(OCC(=O)Nc2ccccn2)cc1 (stereo unspecified),78 to 81
5,O=C(C=C(C(=O)O)c1csc(NC(=O)OCc2ccccc2)n1)OCc1ccccc1,144 to 146
6,CCn1nc(C)c2c1C(=O)NCC(c1cccc(O)c1)=N2,204
7,N#CCOc1coc2ccccc2c1=O,145 to 146
8,N#CC1CN(C(=O)[C@H](NC(=O)c2c[nH]c3ncc(-c4ccc(C(F)(F)F)cc4)nc23)C2CC2)C1,207 to 209
9,COP(=O)(Cc1nc2cc3c(cc2nc1C(=O)OC(C)(C)C)OC(C)(C)O3)OC,86.3 to 87.9
10,CCOC(=O)c1ccc(/C=C(\C)c2ccc3c(c2)OCCCC3)cc1,71 to 72
11,Cc1noc2cc3c(cc12)C1(CO3)C(=O)N(Cc2ccccn2)c2ccccc21 (stereo unspecified),142 to 143
12,NC(=O)c1cc(-c2ncc(C(F)(F)F)cc2Cl)ccc1Cl,167 to 168
13,O=C1CCC(c2ccc(CCCCNC(=O)c3cccnc3)cc2)=NN1,178 to 179
14,O=c1[nH]nc2c3c(cccc13)N=C(CN1CCCN(Cc3ccc(F)cc3)CC1)N2,163 to 165
15,O=C(c1ccc(Cn2ccc3ccccc32)cc1)N1CCC(N2CCCC2)C1 (stereo unspecified),141 to 153
16,CC(O)Cc1cc([N+](=O)[O-])cc([N+](=O)[O-])c1N (stereo unspecified),168
17,CCNC(=O)c1cc(C(=O)O)cc(C(=O)NCC)n1,278 to 280
18,CC1(C)CC(N(CCCCCCN(CCC(=O)O)C2CC(C)(C)NC(C)(C)C2)CCC(=O)O)CC(C)(C)N1,> 250
19,CCOC(=O)COc1cc(OCC(=O)OCC)c2c(C)c(Cc3ccccc3)c(=O)n(Cc3ccccc3)c2c1,113 to 116
20,O=C(CCN1CCN(c2ncccn2)CC1)N1CC2CC3CC(C2)CC1C3,117 to 119
21,O=C(NCCO)c1cccc(-c2cccc3nc(Cc4cccc(C(F)(F)F)c4)oc23)c1,122 to 123
22,O=C1Nc2ccccc2OC1c1ccc(Cl)cc1 (stereo unspecified),180 to 182
23,"CC(C(=O)O)c1ccc2c(c1)oc1ccc(Cl)cc12 (single isomer, unassigned; (+))",155 to 157
24,CC(C)Cn1nc(-c2ccc(F)cc2F)cc(CN2C(=O)c3ccccc3C2=O)c1=O,152 to 156

row,Compound,melting point [°C]
1,CCOC(=O)C(C#N)=NOC(=O)OCc1ccccc1,101 to 102
2,CC(C)c1cc(-c2c3ccccc3c(Br)c3sc4ccccc4c23)cc(C(C)C)c1O,189 to 190
3,CC(=O)c1ccc(-n2c(-c3sc(Nc4ccccc4)nc3-c3ccccc3)nc3ccccc3c2=O)cc1,223 to 225
4,CS(=O)(=O)Nc1ccc(-n2nc(C(F)(F)F)nc2-c2ccc(S(C)(=O)=O)cc2)cc1,188
5,O=C(NCCCCCCCCNC(=O)c1ccc(OC(F)(F)F)cc1)c1ccc(OC(F)(F)F)cc1,164 to 165
6,O=C1Nc2ccccc2S(=O)(=O)N1C1CCN(Cc2ccccc2)CC1,169 to 171
7,C=CCC(C#N)(C#N)Cc1ccc(Cl)c(Cl)c1,71.8
8,CC(C)n1nc(-c2c(F)nc(N)nc2-c2ccccc2)ccc1=O,231 to 232
9,Cc1ccc2c(Cl)cc(S(=O)(=O)F)c(O)c2n1,196 to 198
10,CC(=O)NC(CCc1ccc(C=O)cc1)(COC(C)=O)COC(C)=O,98 to 100
11,OC(c1ccc(Br)cc1)(c1ccc(Br)cc1)c1cncnc1,89 to 90
12,CC1(C)C(C=C2CCSC2=O)C1C(=O)OC(C#N)c1ccc(F)c(Oc2ccccc2)c1 (stereo unspecified),131
13,CCCCN(CCCC)CCN=c1sc2ccccc2s1,122 to 123
14,CC(C)(C)c1ccc(-c2cc(N3CCOCC3)cc(=O)o2)cc1,230 to 232
15,Cc1cc(C)cc(C(=O)Cc2ccncc2)c1,90 to 91
16,CCOC(=O)c1ccc(NC(=O)NCCN2CCN=C2c2ccccn2)cc1,95 to 97
17,CCCC[C@H](NC(=O)[C@H](CC(C)C)NC(=O)OCc1ccccc1)C(=O)CCCc1ccco1,62 to 64
18,Nc1ccc(Oc2ccccc2Oc2ccc(N)cc2)cc1,135 to 136
19,CC(=O)N1c2ccc(-c3ccc(-c4nnn[nH]4)cc3)cc2C(Nc2ccc(Cl)cc2)CC1C (stereo unspecified),250
20,Oc1nc(-c2ccccc2)nc(-c2ccccc2)n1,296 to 297
21,CC(C)(C)OC(=O)N1CC2CN(c3nc(C4=NOC(c5c(F)cccc5F)C4)cs3)CC2C1 (stereo unspecified),78.9 to 80.2
22,N#Cc1cnc2c(Br)csc2c1Cl,176 to 178
23,COc1ccc2c3c(ccc2c1)OC(=O)CC3,122 to 123
24,CCCc1c(C(=O)C(C)C)c2ccc(C(N)=O)cc2n1Cc1ccc(Br)cc1F,197 to 198

row,Compound,melting point [°C]
1,CCOC(=O)c1cc(-n2c(=O)c3c(n(C)c2=O)CCC3)ccc1[N+](=O)[O-],188 to 190
2,COC(=O)c1ccc(-c2nc3c(O)cccc3s2)cc1,215 to 219
3,CN1CCN(C(=O)COc2ccc(N)cc2)CC1,71 to 73
4,Nc1cccc(C(F)(F)C(F)(F)C(F)(F)C(F)(F)C(F)(F)C(F)(F)C(F)(F)C(F)(F)F)c1,35.5 to 36
5,CNC(=O)N1N=C(c2ccc(N)cc2)c2cc(OC)ccc2CC1C (stereo unspecified),190 to 191
6,Cn1nnnc1-c1ccc2c(c1)S(=O)(=O)c1ccccc1C2=O,270 to 271
7,Cn1c(CC#N)ccc1C(=O)c1ccccc1,106 to 108
8,Cn1cc(O)c(=O)c2ccccc21,235 to 240
9,COc1ccc(CNc2nc(N(C)CCO)ncc2C(=O)c2cc(OC)c(OC)c(OC)c2)cc1Cl,166 to 168
10,Cc1cc(-c2cc3cc(OCCNC[C@H](O)c4cccc(C(F)(F)F)c4)ccc3o2)no1,126 to 127
11,COC(=O)C(C)(C)COc1ccc(CNC(=O)C2Cc3ccccc3N2S(=O)(=O)c2ccc(-c3ccccc3C(F)(F)F)cc2)cc1 (stereo unspecified),68 to 75
12,Brc1ccc2c(c1)COCc1cc(Br)ccc1-2,129 to 131
13,CN(C)c1nc2sc3c(NCc4ccco4)ncnc3c2c2c1CC(C)(C)C2,217
14,N[C@@H](Cc1ccc(C(F)(F)F)cc1)[C@H](O)c1cccc(F)c1 (racemic),81 to 82
15,N#CC=Cc1ccc(C(=O)Cl)cc1,154
16,CCCc1c(C#N)ccc(NC(=NC#N)Nc2cccc(Cl)c2Cl)c1O,143 to 147
17,c1ccc2c(c1)CN(Cc1nc3ccccc3[nH]1)C2,172 to 174
18,O=C(O)c1cn(C2CC2)c2nc(N3CCCC(n4ccnn4)C3)c(F)cc2c1=O (stereo unspecified),251 to 254
19,Nc1cc(Cl)cc(Cl)c1C(=O)NCc1cccc(Br)c1,157 to 159
20,COCCOCc1c(CN(C)CC(O)c2cccc(N)c2)sc2c(=O)c(C(=O)NCc3ccc(Cl)cc3)cn(C)c12 (stereo unspecified),128 to 131
21,COc1ccccc1C1(Cl)C(=O)Nc2ccc(C)c(Cl)c21 (stereo unspecified),262 to 263
22,CCOC1=NN(C)C(=O)C1,79 to 80
23,CC(C)c1ccccc1N1C(=O)CON(C)C1=S,98 to 101
24,CCC(CC)Cn1nc(-c2ccc(O)cc2O)c2cccc(C(F)(F)F)c21,89 to 90
